# Literature values in PMC12080252, “Daphnia magna as an Alternative Model for (Simultaneous) Bioaccumulation and Chronic Toxicity Assessment—Controlled Exposure Study Indicates High Hazard of Heterocyclic PAHs” (Environmental Science & Technology, 2025).
# “And” between values parts separate entries of the source, which are not always exact repeats. Equal values may be shown once. Read-outs that look alike come from different tables or passages of the source.
# Legend:
# [1] = Table S10; ref SI ref 23 (UK Environment Agency Report); cited from earlier work
# [2] = system: fish; conditions: cited from earlier work
# [3] = system: aryl hydrocarbon receptor (AhR); conditions: cited from earlier work
# [4] = system: D. magna or D. pulex; conditions: cited from earlier work; for BCF (M of several values): ref SI refs 4, 5; for accumulation in water fleas: compared with fish
# [5] = system: D. magna; conditions: Table S1; footnote not given; cited from earlier work
# [6] = D. magna or D. pulex, ref SI refs 8, 10
molecule,measurement,setting,value
"Clc1cc2c(c(Cl)c1Cl)Oc1cc(Cl)c(Cl)c(Cl)c1O2 [1,2,3,6,7,8-Hexachloro dibenzo-p-dioxin]",log KOW,[1],7.30
same,half-life,"[2]; fish, Table S10, ref SI ref 23",332.71 h
same,log BCFL5%,"[2]; fish, Table S10, ref SI ref 23",3.64
same,log k2,"[2]; fish, Table S10, ref SI ref 23",-2.68 h-1
c1ccc2nc3ccccc3cc2c1 [acridine],AhR agonism,[3],weak to moderate aryl hydrocarbon receptor (AhR) agonists
same,half-life,[4]; [6],0.32 h
same,log k2,[4]; [6],0.33 h-1
"Brc1ccc(Br)c(-c2cc(Br)ccc2Br)c1 [2,2',5,5'-tetra bromobiphenyl]",log KOW,[1],6.50
same,half-life,"[2]; fish, Table S10, ref SI ref 23",1697.50 h
same,log BCFL5%,"[2]; fish, Table S10, ref SI ref 23",4.86
same,log k2,"[2]; fish, Table S10, ref SI ref 23",-3.39 h-1
"COP(=S)(OC)Oc1ccc(SC)c(C)c1 [O,O-Dimethyl O-[3-methyl-4-(methylthio)phenyl]ester phosphorothioic acid]",log KOW,[1],4.17
"Brc1cc(Br)c(-c2c(Br)cc(Br)cc2Br)c(Br)c1 [2,2',4,4',6,6'-hexa bromobiphenyl]",log KOW,[1],7.20
same,half-life,"[2]; fish, Table S10, ref SI ref 23",2343.03 h
same,log BCFL5%,"[2]; fish, Table S10, ref SI ref 23",4.55
same,log k2,"[2]; fish, Table S10, ref SI ref 23",-3.53 h-1
"CC(C)OC(=O)C(C(=O)OC(C)C)=C1SCCS1 [Bis(1-methylethyl)ester, 1,3-dithiolan-2-ylidene propanedioic acid]",log KOW,[1],2.88
same,half-life,"[2]; fish, Table S10, ref SI ref 23",3.65 h and 2.17 h
same,log BCFL5%,"[2]; fish, Table S10, ref SI ref 23",1.45 and 1.59 and 1.65
same,log k2,"[2]; fish, Table S10, ref SI ref 23",-0.72 h-1 and -0.49 h-1
"COP(=S)(OC)Oc1c(Cl)cc(C)cc1Cl [O-(2,6-Dichloro-4-methylphenyl) O,O-dimethyl ester, Phosphorothioic acid]",log KOW,[1],4.56
same,half-life,"[2]; fish, Table S10, ref SI ref 23",17.33 h
same,log BCFL5%,"[2]; fish, Table S10, ref SI ref 23",2.36
same,log k2,"[2]; fish, Table S10, ref SI ref 23",-1.40 h-1
Cc1c2ccccc2cc2ccccc12 [9-methyl-anthracene],half-life,[4]; [6],4.8 h
same,log k2,[4]; [6],-0.84 h-1
c1cc2cccc3c4cccc5cccc(c(c1)c23)c54 [perylene],half-life,[4]; [6],5.02 h
same,log k2,[4]; [6],-0.86 h-1
"Brc1cc(Br)c(-c2ccccc2)c(Br)c1 [2,4,6-tri bromobiphenyl]",log KOW,[1],6.03
c1ccc2c(c1)oc1ccccc12 [dibenzofuran],AhR agonism,[3],weak to moderate aryl hydrocarbon receptor (AhR) agonists
ClC(Cl)=C(c1ccc(Cl)cc1)c1ccc(Cl)cc1 [pp’DDE],BCF (M of several values),"[2]; fish, ref SI refs 4, 7, 12",54250
c1ccc2c(c1)ccc1ccccc12 [phenanthrene],accumulation in fish versus invertebrates (Figure 3B),[2]; in vivo,accumulated in fish but not in Daphnia and H. azteca
same,AhR-mediated toxicity,[3],do not trigger AhR-mediated toxicity
same,BCF (M of several values),[4]; D. magna or D. pulex,325
same,log k2,[4]; [6],-0.27 h-1
same,half-life,[4]; in vivo,1.29 h
CC(C)Oc1cccc(NC(=O)c2ccccc2C(F)(F)F)c1 [N-[3-(1-Methylethoxy)phenyl]-2-(trifluoromethyl) benzamide],log KOW,[1],3.70
same,half-life,"[2]; fish, Table S10, ref SI ref 23",5.78 h
same,log BCFL5%,"[2]; fish, Table S10, ref SI ref 23",1.32
same,log k2,"[2]; fish, Table S10, ref SI ref 23",-0.92 h-1
c1ccc2cc3ccccc3cc2c1 [anthracene],AhR-mediated toxicity,[3],do not trigger AhR-mediated toxicity
same,BCF (M of several values),[4]; D. magna or D. pulex,944
same,half-life,[4]; [6],1.18 h
same,log k2,[4]; [6],-0.23 h-1
"Clc1cc2c(oc3c(Cl)c(Cl)c(Cl)cc32)c(Cl)c1Cl [2,3,4,6,7,8-Hexachloro dibenzofuran]",log KOW,[1],7.30
same,half-life,"[2]; fish, Table S10, ref SI ref 23",166.36 h
same,log BCFL5%,"[2]; fish, Table S10, ref SI ref 23",3.69
same,log k2,"[2]; fish, Table S10, ref SI ref 23",-2.38 h-1
"CC(C)C(C(=O)OC(C#N)c1cccc(Oc2ccccc2)c1)c1ccc(Cl)cc1 (stereo not drawn) [Cyano(3-phenoxyphenyl)methyl ester, 4-chloro-alpha-(1-methylethyl) benzeneacetic acid]",log KOW,[1],6.20
same,half-life,"[2]; fish, Table S10, ref SI ref 23",75.62 h
same,log BCFL5%,"[2]; fish, Table S10, ref SI ref 23",2.64
same,log k2,"[2]; fish, Table S10, ref SI ref 23",-2.04 h-1
CC1(C)[C@H](C(=O)OCc2cccc(Oc3ccccc3)c2)[C@@H]1C=C(Cl)Cl [cis-Permethrin],log KOW,[1],7.43
same,half-life,"[2]; fish, Table S10, ref SI ref 23",36.97 h
same,log BCFL5%,"[2]; fish, Table S10, ref SI ref 23",2.45
same,log k2,"[2]; fish, Table S10, ref SI ref 23",-1.73 h-1
CCCCCCCCCCCCCOCCOCCOCCOCCOCCOCCOCCOCCO [Octaethylene glycol monotridecyl ether],half-life,"[2]; fish, Table S10, ref SI ref 23",1.65 h
same,log BCFL5%,"[2]; fish, Table S10, ref SI ref 23",1.69
same,log k2,"[2]; fish, Table S10, ref SI ref 23",-0.38 h-1
"Clc1cc2c(cc1Cl)Oc1c(cc(Cl)c(Cl)c1Cl)O2 [1,2,3,7,8-Pentachlorodibenzo-p-dioxin]",log KOW,[1],6.64
same,half-life,"[2]; fish, Table S10, ref SI ref 23",554.52 h
same,log BCFL5%,"[2]; fish, Table S10, ref SI ref 23",3.97
same,log k2,"[2]; fish, Table S10, ref SI ref 23",-2.90 h-1
CCCCCCCC(CCCC)c1ccc(S(=O)(=O)O)cc1 (stereo not shown) [C-12-5-LAS],log KOW,[1],4.71
same,half-life,"[2]; fish, Table S10, ref SI ref 23",13.86 h
same,log BCFL5%,"[2]; fish, Table S10, ref SI ref 23",1.00
same,log k2,"[2]; fish, Table S10, ref SI ref 23",-1.30 h-1
c1ccc2c(c1)sc1ccccc12 [dibenzothiophene],lowest PNEC*,[5],0.24 µg/L
same,bioaccumulation in fish,[2],high bioaccumulation in fish
c1ccc2c(c1)Cc1ccccc1O2 [xanthene],bioaccumulation in fish,[2]; in vivo,high bioaccumulation in fish
same,AhR agonism,[3],weak to moderate aryl hydrocarbon receptor (AhR) agonists
"Clc1cc2oc3cc(Cl)c(Cl)cc3c2cc1Cl [2,3,7,8-Tetrachlorodibenzo furan]",log KOW,[1],6.53
same,half-life,"[2]; fish, Table S10, ref SI ref 23",57.36 h
same,log BCFL5%,"[2]; fish, Table S10, ref SI ref 23",2.89
same,log k2,"[2]; fish, Table S10, ref SI ref 23",-1.92 h-1
c1ccc2nc3ccc4ccccc4c3cc2c1 [benz(a)acridine],lowest PNEC*,[5],0.016 µg/L
same,half-life,[4]; [6],1.2 h
same,log k2,[4]; [6],-0.24 h-1
c1ccc2cnccc2c1 [isoquinoline],half-life,[4]; [6],0.04 h
same,log k2,[4]; [6],1.26 h-1
c1ccc2ncccc2c1 [quinoline],BCF (M of several values),[2]; in vivo,2.5
same,log BCFL5%,[2]; in vivo,1.92
"c1ccc2c(c1)Oc1ccccc1O2 [dibenzo[1,4]dioxane]",bioaccumulation in fish,[2],high bioaccumulation in fish
c1ccc2cc3c(ccc4ccccc43)cc2c1 [benz[a]anthracene],log KOW,[1],5.76
"c1ccc2c(c1)ccc1c3ccccc3sc21 [Benzo[b]naphtho[2,1-d]thiophene]",accumulation in water fleas,[4],accumulate even more in water fleas
"c1ccc2c(c1)ccc1c3ccc4ccccc4c3[nH]c21 [dibenzocarbazole, 13H-dibenzo[a,i]carbazole]",bioaccumulation in fish,[2],high bioaccumulation in fish
same,half-life,[4]; [6],9 h
same,log k2,[4]; [6],-1.11 h-1
same,accumulation in water fleas,[4],accumulate even more in water fleas
c1ccc2c(c1)Cc1ccccc1S2 [thioxanthene],lowest PNEC*,[5],0.32 µg/L
"Clc1cc2c(oc3c(Cl)c(Cl)c(Cl)c(Cl)c32)c(Cl)c1Cl [1,2,3,4,6,7,8-Heptachloro dibenzofuran]",log KOW,[1],7.40
same,half-life,"[2]; fish, Table S10, ref SI ref 23",127.97 h
same,log BCFL5%,"[2]; fish, Table S10, ref SI ref 23",3.16
same,log k2,"[2]; fish, Table S10, ref SI ref 23",-2.27 h-1
"Clc1cc2c(oc3cc(Cl)c(Cl)c(Cl)c32)c(Cl)c1Cl [1,2,3,6,7,8-Hexachloro dibenzofuran]",log KOW,[1],7.30
same,half-life,"[2]; fish, Table S10, ref SI ref 23",213.28 h
same,log BCFL5%,"[2]; fish, Table S10, ref SI ref 23",3.65
same,log k2,"[2]; fish, Table S10, ref SI ref 23",-2.49 h-1
"ClC1C(Cl)C(Cl)C(Cl)C(Cl)C1Cl (stereo not shown) [Cyclohexane, 1,2,3,4,5,6-hexachloro-, (1a,2a,3B,4a,5a,6B)-]",log KOW,[1],3.72
same,half-life,"[2]; fish, Table S10, ref SI ref 23",12.60 h
same,log BCFL5%,"[2]; fish, Table S10, ref SI ref 23",2.81
same,log k2,"[2]; fish, Table S10, ref SI ref 23",-1.26 h-1
c1ccc2c(c1)Sc1ccccc1S2 [thianthrene],bioaccumulation in fish,[2],high bioaccumulation in fish
"c1ccc2c(c1)Cc1c-2ccc2ccccc12 [Benzofluorene, benzo[a]fluorene]",body burden,[4]; D. magna,17600 µg/kg
same,log BAF*L5%,[4]; D. magna,4.09 L kg^-1 lipid
"Clc1cc2oc3c(Cl)c(Cl)c(Cl)cc3c2cc1Cl [2,3,4,7,8-Pentachloro dibenzofuran]",log KOW,[1],6.64
c1ccc2ccccc2c1 [naphthalene],AhR-mediated toxicity,[3],do not trigger AhR-mediated toxicity
same,half-life,[4]; [6],0.42 h
same,log k2,[4]; in vivo,0.22 h-1
COc1ccc(C(c2ccc(OC)cc2)C(Cl)(Cl)Cl)cc1 [Methoxychlor],accumulation in fish versus invertebrates (Figure 3B),[2]; in vivo,accumulating in invertebrates but not in fish
COP(=S)(OC)Oc1ccc(Cl)cc1C#N [Methyl isocyanothion],log KOW,[1],3.58
same,half-life,"[2]; fish, Table S10, ref SI ref 23",14.10 h
same,log BCFL5%,"[2]; fish, Table S10, ref SI ref 23",2.09
same,log k2,"[2]; fish, Table S10, ref SI ref 23",-1.31 h-1
c1ccc2c(c1)Cc1ccccc1-2 [fluorene],AhR-mediated toxicity,[3],do not trigger AhR-mediated toxicity
"c1ccc2cc3c(cc2c1)sc1ccccc13 [benzo[b]naphtho[2,3-d]thiophene]",bioaccumulation in fish,[2],high bioaccumulation in fish
"Phenol, 4-nonyl-, branched,",log KOW,[1],5.92
same,half-life,"[2]; fish, Table S10, ref SI ref 23",9.90 h
same,log BCFL5%,"[2]; fish, Table S10, ref SI ref 23",2.58
same,log k2,"[2]; fish, Table S10, ref SI ref 23",-1.15 h-1
CCCCCCCCCCC(C)c1ccc(S(=O)(=O)O)cc1 (stereo not shown) [C-12-2-LAS],log KOW,[1],4.71
same,half-life,"[2]; fish, Table S10, ref SI ref 23",23.77 h
same,log BCFL5%,"[2]; fish, Table S10, ref SI ref 23",2.16
same,log k2,"[2]; fish, Table S10, ref SI ref 23",-1.54 h-1
